# Assays:
# [1] = β cryptoxanthin stabilizing test, Example 2A (water from Citrus unshiu powder with additive L-ascorbic acid, stored at 40° C.); format: physicochemical; details: 0.0022 parts by mass β cryptoxanthin (powder) in water
# Experimental: The prepared powder derived from Citrus unshiu and water were mixed. Thus, a mixed solution was prepared. The mixing was conducted so that a mass ratio between β cryptoxanthin contained in the powder and the mixed water became 1 mg:50 g (0.0022 parts by mass of β cryptoxanthin with respect to 100 parts by mass of finally obtained β cryptoxanthin-containing water). Vitamin C (L-ascorbic acid) was added to the mixed solution, which was then mixed by stirring. Thus, β cryptoxanthin-containing waters were prepared. The total amounts of L-ascorbic acid in the respective β cryptoxanthin-containing waters were set to 0.005, 0.01, 0.02, 0.1, and 0.2 parts by mass with respect to 100 parts by mass of entire β cryptoxanthin-containing water by adding vitamin C. 50 g of five types of the β cryptoxanthin-containing waters were filled in the respective brown bottles. Thereafter, the brown bottles were subjected to a heat sterilization treatment under the condition at 90° C. for 30 minutes, which were then stored at 40° C. Sampling was conducted on a storage start date and after two months from the same. The respective amounts of β cryptoxanthin in samples were measured in the same manner as in Example 1A. Then, assuming that the amount of β cryptoxanthin on the storage start date was 100%, residual ratios of β cryptoxanthin were determined.
# [2] = Storage stability at 20° C. and 25° C. calculated by Arrhenius equation, Example 4A; format: physicochemical; details: for possible storage period in the stable state: β cryptoxanthin-containing waters of Example 1A, 2A, and 3A, from storage at 40° C. for 2 months
# Experimental: With respect to each of the β cryptoxanthin-containing waters prepared in Examples 1A, 2A, and 3A, storage stability at 20° C. and 25° C. was determined.
# The storage stability was calculated by the following method with reference to the publication below. Conditions were described in the publication, hereby incorporated herein by reference. • Sumie Yoshioka (1995), “Iyakuhin no Anzensei—yoriyoi Kaihatsu to Hyoka notameno Kiso kara Jissai made—(Drug safety—principles and practices for improving development and evaluation—), Nankodo Co., Ltd.
# Specifically, a graph of FIG. 185 on page 95 of the publication was cited. FIG. 1 is an Arrhenius plot of degradation of thiamine hydrochloride in a vitamin complex liquid agent, the Y axis indicates log Kobs (day^−1), and the X axis indicates 1/T (K^1). The stable periods were calculated based on the activation energy for degradation of thiamine hydrochloride in the vitamin complex liquid agent, shown in the graph.
# In FIG. 1, the Y axis is indicated by not ln, but log. Therefore log Kobs was converted into ln k.
# Then, −Ea/R and ln A were calculated from the ln k and 1/T (K^−1) on the X axis of FIG. 1 based on the Arrhenius equation represented by the formula (1) below.
# [3] = compound of structural formula (1); stated as known; cited from earlier work
# [4] = Storage stability at 20° C. and 25° C. calculated by Arrhenius equation, Example 4B; format: physicochemical; details: for possible storage period in a stable state: β cryptoxanthin-containing waters of Examples 1B, 2B, and 3B
# Experimental: With respect to the β cryptoxanthin-containing waters prepared in Examples 1B, 2B, and 3B, storage stability at 20° C. and 25° C. was determined. Determination of the storage stability was performed in the same manner as in Example 4A.
# [5] = β cryptoxanthin stabilizing test, Example 2B (water from powder, varied β cryptoxanthin concentration, stored at 45° C.); format: physicochemical
# Experimental: The prepared powder derived from Citrus unshiu and water were mixed. Thus, β cryptoxanthin-containing waters were prepared. In the mixing, concentrations of the β cryptoxanthin were set to predetermined parts by mass with respect to 100 parts by mass of a combination of the water and components contained in the water. The predetermined parts by mass were 0.0005, 0.0010, 0.0022, 0.0031, 0.0060, and 0.0079 parts by mass. Thus, six types of β cryptoxanthin-containing waters each having a different concentration of the β cryptoxanthin were prepared. Each of the β cryptoxanthin-containing waters was sufficiently stirred. Thereafter 90 g of the resultant β cryptoxanthin-containing water was filled in an aluminum pouch, which was then sterilized under the condition at 85° C. for 30 minutes. Six types of the β cryptoxanthin-containing waters of the example were stored at 45° C. for one month. Sampling was conducted on a storage start date and after one month from the storage start date. The respective amounts of β cryptoxanthin in samples were measured by HPLC in the same manner as in Example 1B. Then, assuming that the amount of β cryptoxanthin on the storage start date was 100%, residual ratios of β cryptoxanthin were determined.
# [6] = β cryptoxanthin stabilizing test, Example 3B (water from concentrated liquid, varied β cryptoxanthin concentration, stored at 45° C.); format: physicochemical
# Experimental: The prepared concentrated liquid derived from Citrus unshiu and water were mixed. Thus, β cryptoxanthin-containing waters were prepared. In the mixing, concentrations of the β cryptoxanthin were set to predetermined parts by mass with respect to 100 parts by mass of a combination of the water and components contained in the water. The predetermined parts by mass were 0.0007, 0.0015, 0.0025, 0.0053, and 0.0072 parts by mass. Thus, five types of β cryptoxanthin-containing waters each having a different concentration of the β cryptoxanthin were prepared. Each of the β cryptoxanthin-containing waters was sufficiently stirred. Thereafter 90 g of the resultant β cryptoxanthin-containing water was filled in an aluminum pouch, which was then sterilized under the condition at 85° C. for 30 minutes.
# Five types of the β cryptoxanthin-containing waters of the example were stored at 45° C. for one month. Sampling was conducted on a storage start date and after one month from the storage start date. The respective amounts of β cryptoxanthin in samples were measured by HPLC in the same manner as in Example 1B. Then, assuming that the amount of β cryptoxanthin on the storage start date was 100%, residual ratios of β cryptoxanthin were determined.
structure (smiles),measurement,setting,value
CC1=C(/C=C/C(C)=C/C=C/C(C)=C/C=C/C=C(C)/C=C/C=C(C)/C=C/C2=C(C)C[C@@H](O)CC2(C)C)C(C)(C)CCC1 [β cryptoxanthin],Residual ratio of β cryptoxanthin Storage for two months (%),[1]; additive L-ascorbic acid 0.005 parts by mass,62.5%
same,Residual ratio of β cryptoxanthin Storage for two months (%),[1]; additive L-ascorbic acid 0.01 parts by mass,75.5%
same,Residual ratio of β cryptoxanthin Storage for two months (%),[1]; additive L-ascorbic acid 0.02 parts by mass,92.0%
same,Residual ratio of β cryptoxanthin Storage for two months (%),[1]; additive L-ascorbic acid 0.1 parts by mass,100%
same,Residual ratio of β cryptoxanthin Storage for two months (%),[1]; additive L-ascorbic acid 0.2 parts by mass,31.9%
same,storage in a stable state at normal temperature,"[2]; Example 4A, normal temperature (20° C. to 25° C.)",two years or more
same,possible storage period in the stable state,[2]; 20° C.,about 34 months
same,possible storage period in the stable state,[2]; 25° C.,about 16.2 months
same,solubility in water,[3],poorly soluble in water
same,storage in a stable state at normal temperature,"[4]; Example 4B, normal temperature (20° C. to 25° C.)",two years or more
same,possible storage period in a stable state,[4]; 20° C.,about 32.7 months
same,possible storage period in a stable state,[4]; 25° C.,about 15.6 months
same,Residual ratio of β cryptoxanthin Storage for one month (%),[5]; β cryptoxanthin 0.0005 parts by mass (powder) in water,5.3%
same,Residual ratio of β cryptoxanthin Storage for one month (%),[5]; β cryptoxanthin 0.0010 parts by mass (powder) in water,45.6%
same,Residual ratio of β cryptoxanthin Storage for one month (%),[5]; β cryptoxanthin 0.0022 parts by mass (powder) in water,75.5%
same,Residual ratio of β cryptoxanthin Storage for one month (%),[5]; β cryptoxanthin 0.0031 parts by mass (powder) in water,82.4%
same,Residual ratio of β cryptoxanthin Storage for one month (%),[5]; β cryptoxanthin 0.0060 parts by mass (powder) in water,97.9%
same,Residual ratio of β cryptoxanthin Storage for one month (%),[5]; β cryptoxanthin 0.0079 parts by mass (powder) in water,101.1%
same,Residual ratio of β cryptoxanthin Storage for one month (%),[6]; β cryptoxanthin 0.0007 parts by mass (concentrated liquid) in water,42.6%
same,Residual ratio of β cryptoxanthin Storage for one month (%),[6]; β cryptoxanthin 0.0015 parts by mass (concentrated liquid) in water,78.0%
same,Residual ratio of β cryptoxanthin Storage for one month (%),[6]; β cryptoxanthin 0.0025 parts by mass (concentrated liquid) in water,95.8%
same,Residual ratio of β cryptoxanthin Storage for one month (%),[6]; β cryptoxanthin 0.0053 parts by mass (concentrated liquid) in water,96.6%
same,Residual ratio of β cryptoxanthin Storage for one month (%),[6]; β cryptoxanthin 0.0072 parts by mass (concentrated liquid) in water,100.8%

# — patent US20120156333A1, “STABILIZED BETA CRYPTOXANTHIN-CONTAINING WATER AND THE USE THEREOF” (ARKRAY, INC., priority 2010, published 2012)
